Target: T1, GPR119 (Homo sapiens, UniProt Q8TDV5)
T1 construct: host or cells: CHO-K1 (CRE-bla reporter, doxycycline-induced)
T1 sequence (Q8TDV5 1-335): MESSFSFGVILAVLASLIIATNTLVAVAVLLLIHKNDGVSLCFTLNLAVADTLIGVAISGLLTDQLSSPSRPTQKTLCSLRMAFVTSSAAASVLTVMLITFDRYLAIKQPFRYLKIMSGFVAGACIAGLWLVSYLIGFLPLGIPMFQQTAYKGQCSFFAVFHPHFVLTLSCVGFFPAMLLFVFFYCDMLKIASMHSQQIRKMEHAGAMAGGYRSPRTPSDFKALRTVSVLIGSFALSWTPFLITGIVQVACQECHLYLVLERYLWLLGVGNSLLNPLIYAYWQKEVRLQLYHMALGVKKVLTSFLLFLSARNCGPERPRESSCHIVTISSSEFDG
Assay: Controlling Effect of GPR119 in CRE-bla CHO-K1 Cells (EC50)
Format: cell-based
Conditions: GPR119 CRE-bla CHO-K1 cell line, 5 hr incubation with compound, β-lactamase LiveBLAzer-FRET B/G readout; read-out: controlling effect against GPR119 in CRE-bla CHO-K1 cell line (EC50)
Procedure: Controlling Effect of GPR119 in CRE-bla CHO-K1 Cells (EC50)
The day before the experiment, GPR119 CRE-bla CHO-K1 cell line purchased from Invitrogen was seeded in a 96 black well plate in an amount of 80 μl at a density of 5×10^4 cells. After the seeding, 10 μl of doxycycline in a concentration of 1 μg/ml was added to each well and incubated in an incubator at 37° C. under 5% CO2 for about 16 to 20 hr.
The day of experiment, sample compounds were performed a 10-fold serial dilution with a culture medium at various concentrations of 1 uM to […]. Considering that the culture medium used in the seeding and doxycycline are together applied, the sample compounds were diluted to a 5-fold dilution of the planned concentration. 20 μl of the compound diluted with the culture medium was added to each well and incubated in the incubator for 5 hr. The compound-untreated group was added with 20 μl of 0.5% dimethyl sulfoxide (DMSO) diluted with the culture medium. After 5 hr from the incubation, substrate mixture of a 6-fold concentration were prepared; 6 μl of 1 mM LiveBLAzer™-FRET B/G(CCF4-AM) substrate, 60 μl of solution B, 904 μl of solution C and 30 μl of solution D. 12 μl of the substrate mixture was added to each well and allowed to be kept at room temperature for 2 hr with shading the light. Fluorescence intensity value of blue channel and green channel was determined by a fluorescence microplate reader at 409 nm/460 nm and 409 nm/[…] (excitation/emission), respectively. In order to confirm the controlling effect of the inventive compounds against GPR119, EC50 (half maximal effective concentration) was determined based on the determined values. EC50, the concentration at which 50% activity of β-lactamase, was determined according to the following Equation: Equation=[(Ti−Tz)/(C−Tz)]×100
[Wherein, Ti: Cell density of the compound-treated group; Tz: Cell density of the negative control group; and C: Cell density of the positive control group]

Row | Structure (SMILES) | EC50 [nM]
1 | CCc1cnc(N2CCC(Oc3ncnc4c(-c5ccc(S(C)(=O)=O)cc5F)cn(C)c34)CC2)nc1 [Example 29, 4-(1-(5-ethylpyrimidin-2-yl)piperidin-4-yloxy)-7-(2-fluoro-4-methanesulfonyl-phenyl)-5-methyl-5H-pyrrolo[3,2-d]pyrimidine] | < 100
2 | Cn1cc(-c2ccc(S(C)(=O)=O)cc2F)c2ncnc(OC3CCN(c4ncc(C(F)(F)F)cn4)CC3)c21 [Example 31, 7-(2-fluoro-4-methanesulfonyl-phenyl)-5-methyl-4-(1-(5-(trifluoromethyl)pyrimidin-2-yl)piperidin-4-yloxy)-5H-pyrrolo[3,2-d]pyrimidine] | < 100
3 | CCc1cnc(N2CCC(Oc3ncnc4c(-c5ccc(S(C)(=O)=O)cc5)cn(CC)c34)CC2)nc1 [Example 32, 5-ethyl-4-(1-(5-ethylpyrimidin-2-yl)piperidin-4-yloxy)-7-(4-methanesulfonyl-phenyl)-5H-pyrrolo[3,2-d]pyrimidine] | < 100
4 | CC(C)c1noc(N2CCC(Oc3ncnc4c(-c5ccc(S(C)(=O)=O)cc5F)cn(C)c34)CC2)n1 [Example 36, 5-(4-(7-(2-fluoro-4-methanesulfonyl-phenyl)-5-methyl-5H-pyrrolo[3,2-d]pyrimidin-4-yloxy)piperidin-1-yl)-3-isopropyl-1,2,4-oxadiazole] | < 100
5 | CC(C)c1noc(N2CC[C@H](Oc3ncnc4c(-c5ccc(S(C)(=O)=O)cc5)cn(C)c34)C2)n1 [Example 38, 4-[1-(3-isopropyl-[1,2,4]oxadiazol-5-yl)-pyrrolidin-3-yloxy]-7-(4-methanesulfonyl-phenyl)-5-methyl-5H-pyrrolo[3,2-d]pyrimidine] | > 1000
6 | Cn1cc(-c2ccc(S(C)(=O)=O)cc2)c2ncnc(OC3CCN(C(=O)NC(C)(C)C)CC3)c21 [Example 40, 4-[7-(4-methanesulfonyl-phenyl)-5-methyl-5H-pyrrolo[3,2-d]pyrimidin-4-yloxy]piperidin-1-carboxylic acid tert-butylamide] | 100 to 1000
7 | CC(C)c1noc(N2CCC(Oc3ncnc4c(-c5ccc(N)cc5)cn(C)c34)CC2)n1 [Example 41, 4-(4-(1-(3-isopropyl-1,2,4-oxadiazol-5-yl)piperidin-4-yloxy)-5-methyl-5H-pyrrolo[3,2-d]piperidin-7-yl)benzenamine] | > 1000
8 | CC(C)c1noc(N2CCC(Oc3ncnc4c(-c5ccc([N+](=O)[O-])cc5)cn(C)c34)CC2)n1 [Example 42, 3-isopropyl-5-(4-(5-methyl-7-(4-nitrophenyl)-5H-pyrrolo[3,2-d]pyrimidin-4-yloxy)piperidin-1-yl)-1,2,4-oxadiazole] | > 1000
9 | CCc1cnc(N2CCC(Oc3ncnc4c(-c5ccc(C#N)cc5)cn(C)c34)CC2)nc1 [Example 43, 4-{4-[1-(5-ethylpyrimidin-2-yl)-piperidin-4-yloxy]-5-methyl-5H-pyrrolo[3,2-d]pyrimidin-7-yl}-benzonitrile] | > 1000
10 | CC(C)N1CCC(Oc2ncnc3c(-c4ccc(S(C)(=O)=O)cc4)cn(C)c23)CC1 [Example 45, 4-(1-isopropyl-piperidin-4-yloxy)-7-(4-methanesulfonyl-phenyl)-5-methyl-5H-pyrrolo[3,2-d]pyrimidine] | 100 to 1000
11 | CC(C)(C)OC(=O)N1CCC(Oc2ncnc3c(-c4ccc(S(C)(=O)=O)cc4)csc23)CC1 [Example 50, tert-butyl 4-(7-(4-methanesulfonyl-phenyl)thieno[3,2-d]pyrimidin-4-yloxy)piperidine-1-carboxylate] | < 100
12 | CS(=O)(=O)c1ccc(-c2csc3c(OC4CCN(c5nc(CC6CC6)no5)CC4)ncnc23)cc1 [Example 52, 3-(cyclopropylmethyl)-5-(4-(7-(4-methanesulfonyl-phenyl)thieno[3,2-d]pyrimidin-4-yloxy)piperidin-1-yl)-1,2,4-oxadiazole] | < 100
13 | CC(C)(C)c1noc(N2CCC(Oc3ncnc4c(-c5ccc(S(C)(=O)=O)cc5)csc34)CC2)n1 [Example 53, 3-tert-butyl-5-(4-(7-(4-methanesulfonyl-phenyl)thieno[3,2-d]pyrimidin-4-yloxy)piperidin-1-yl)-1,2,4-oxadiazole] | < 100

Further lines, results first:

Row | EC50 [nM] | Structure (SMILES)
14 | < 100 | CCCc1cnc(N2CCC(Oc3ncnc4c(-c5ccc(S(C)(=O)=O)cc5F)cn(C)c34)CC2)nc1 [Example 30]
15 | < 100 | CCc1cnc(N2CCC(Oc3ncnc4c(-c5ccc(S(C)(=O)=O)cc5F)cn(CC)c34)CC2)nc1 [Example 33, 5-ethyl-4-(1-(5-ethylpyrimidin-2-yl)piperidin-4-yloxy)-7-(2-fluoro-4-methanesulfonyl-phenyl)-5H-pyrrolo[3,2-d]pyrimidine]
16 | < 100 | CCCc1cnc(N2CCC(Oc3ncnc4c(-c5ccc(S(C)(=O)=O)cc5F)cn(CC)c34)CC2)nc1 [Example 34, 5-ethyl-7-(2-fluoro-4-methanesulfonyl-phenyl)-4-(1-(5-propylpyrimidin-2-yl)piperidin-4-yloxy)-5H-pyrrolo[3,2-d]pyrimidine]
17 | < 100 | CC(C)c1noc(N2CCC(Oc3ncnc4c(-c5ccc(S(C)(=O)=O)cc5)cn(C)c34)CC2)n1 [Example 35, 3-isopropyl-5-(4-(5-methyl-7-(4-methanesulfonyl-phenyl)-5H-pyrrolo[3,2-d]pyrimidin-4-yloxy)piperidin-1-yl)-1,2,4-oxadiazole]
18 | < 100 | CCn1cc(-c2ccc(S(C)(=O)=O)cc2F)c2ncnc(OC3CCN(c4nc(C(C)C)no4)CC3)c21 [Example 37, 5-(4-(5-ethyl-7-(2-fluoro-4-methanesulfonyl-phenyl)-5H-pyrrolo[3,2-d]pyrimidin-4-yloxy)piperidin-1-yl)-3-isopropyl-1,2,4-oxadiazole]
19 | 100 to 1000 | CCc1cnc(N2CC[C@H](Oc3ncnc4c(-c5ccc(S(C)(=O)=O)cc5)cn(C)c34)C2)nc1 [Example 39, 4-[1-(5-ethylpyrimidin-2-yl)-pyrrolidin-3-yloxy]-7-(4-methanesulfonyl-phenyl)-5-methyl-5H-pyrrolo[3,2-d]pyrimidine]
20 | 100 to 1000 | CCc1cnc(N2CCC(Oc3ncnc4c(-c5ccc(C(C)=O)cc5)cn(C)c34)CC2)nc1 [Example 44, 1-(4-{4-[1-(5-ethylpyrimidin-2-yl)-piperidin-4-yloxy]-5-methyl-5H-pyrrolo[3,2-d]pyrimidin-7-yl}-phenyl)-ethanone]
21 | 100 to 1000 | Cn1cc(-c2ccc(S(C)(=O)=O)cc2)c2ncnc(OC3CCN(C(=O)C(C)(C)C)CC3)c21 [Example 46, 1-{4-[7-(4-methanesulfonyl-phenyl)-5-methyl-5H-pyrrolo[3,2-d]pyrimidin-4-yloxy]-piperidin-1-yl}-2,2-dimethynyl-propan-1-one]
22 | > 1000 | Cn1cc(-c2ccc(F)nc2)c2ncnc(OC3CCN(C(=O)OC(C)(C)C)CC3)c21 [Example 47, tert-butyl 4-(7-(6-fluoropyridin-3-yl)-5-methyl-5H-pyrrolo[3,2-d]pyrimidin-4-yloxy)piperidine-1-carboxylate]
23 | > 1000 | CCc1cnc(N2CCC(Oc3ncnc4c(-c5ccc(F)nc5)cn(C)c34)CC2)nc1 [Example 48, 4-(1-(5-ethylpyrimidin-2-yl)piperidin-4-yloxy)-7-(6-fluoropyridin-3-yl)-5-methyl-5H-pyrrolo[3,2-d]pyrimidine]
24 | 100 to 1000 | CCc1cnc(N2CCC(COc3ncnc4c(-c5ccc(S(C)(=O)=O)cc5)cn(C)c34)CC2)nc1 [Example 49, 4-((1-(5-ethylpyrimidin-2-yl)piperidin-4-yl)methoxy)-5-methyl-7-(4-methanesulfonyl-phenyl)-5H-pyrrolo[3,2-d]pyrimidine]
25 | < 100 | CC(C)c1noc(N2CCC(Oc3ncnc4c(-c5ccc(S(C)(=O)=O)cc5)csc34)CC2)n1 [Example 51]
26 | < 100 | CS(=O)(=O)c1ccc(-c2csc3c(OC4CCN(c5nc(C6CCC6)no5)CC4)ncnc23)cc1 [Example 54, 3-cyclobutyl-5-(4-(7-(4-methanesulfonyl-phenyl)thieno[3,2-d]pyrimidin-4-yloxy)piperidin-1-yl)-1,2,4-oxadiazole]
27 | < 100 | CCc1cnc(N2CCC(Oc3ncnc4c(-c5ccc(S(C)(=O)=O)cc5)csc34)CC2)nc1 [Example 55, 4-(1-(5-ethylpyrimidin-2-yl)piperidin-4-yloxy)-7-(4-methanesulfonyl-phenyl)thieno[3,2-d]pyrimidine]

Source: patent publication US8853213B2, “Bicyclic compound for modulating G protein-coupled receptors” (Hanmi Pharm. Co., Ltd, priority 2011, dated 2014)
